# T1: H64NORS linalool/nerolidol synthase, cultivated strawberry, recombinant his-tag purified, no targeting signal, SEQ ID NO: 19 (Fragaria x ananassa, UniProt P0CV94)
# T1 sequence (P0CV94 1-519): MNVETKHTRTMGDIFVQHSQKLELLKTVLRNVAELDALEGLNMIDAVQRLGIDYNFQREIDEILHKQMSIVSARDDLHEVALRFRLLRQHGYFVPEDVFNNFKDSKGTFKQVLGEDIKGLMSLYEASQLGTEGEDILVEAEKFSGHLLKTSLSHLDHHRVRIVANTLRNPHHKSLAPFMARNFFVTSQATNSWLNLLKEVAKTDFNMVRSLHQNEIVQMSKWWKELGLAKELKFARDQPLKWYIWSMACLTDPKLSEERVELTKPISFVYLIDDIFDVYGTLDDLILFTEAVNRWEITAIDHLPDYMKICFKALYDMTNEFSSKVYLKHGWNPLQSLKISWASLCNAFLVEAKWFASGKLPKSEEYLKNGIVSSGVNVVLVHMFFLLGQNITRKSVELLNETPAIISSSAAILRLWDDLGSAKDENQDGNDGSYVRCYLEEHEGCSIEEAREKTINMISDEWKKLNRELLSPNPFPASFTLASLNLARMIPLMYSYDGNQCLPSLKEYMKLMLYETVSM
# B1: H64NORS linalool/nerolidol synthase, cultivated strawberry, recombinant his-tag purified, no targeting signal, SEQ ID NO: 19 (Fragaria x ananassa) (protein)
# chain: T1 sequence (P0CV94 1-519)
# Tests used:
# [1] = tested on: Phytophthora infestans; assay type: cell-based; conditions: for inhibition of mycelium growth: 2% and 0.2% (v/v) in Plich medium, isolate VK98014, day 3, 5 and 7; for effect on mycelium growth at the lowest concentration: 0.002% (=20 ppm) in Plich medium, isolate VK98014, day 3 and 5; for effect on mycelium growth through the vapour phase: 0.2% added to the medium in the adjacent wells, isolate VK98014
# [2] = tested on: Botrytis cinerea isolated from grape and strawberry; experiment: Effects of linalool and nerolidol on Botrytis mycelial growth; assay type: cell-based; conditions: day 7
# Procedure: Botrytis. Nerolidol and linalool were tested in a range of concentrations (10-5000 ppm) alone and in combination through the addition to Plich medium in 6 well plates (3 ml per well). In the case of comparing the application of nerolidol and linalool alone to the combination of the two compounds, 100 ppm of the single compound was for example compared to 50+50 ppm of the two compounds together. One 6 well plate per compound was used with two different concentrations in triplicate. All wells were inoculated with a mycelium plug of Botrytis cinerea isolated from grape and strawberry and incubated at 20° C. Each day the radial growth of the mycelium was measured. The mycelium growth of all Botrytis isolates was inhibited at concentrations above 10 ppm.
# [3] = tested on: Fusarium graminearum, Fusarium culmorum, F. verticillioides strain MRC826; assay type: cell-based, Fusarium spp.
# [4] = tested on: Phytophthora infestans; assay type: in vivo; conditions: cultivar Bintje, 0.05% (v/v) solution vacuum-infiltrated (ca. 0.0125% in leaves), 4 isolates, after 7 days
# [5] = tested on: Fusarium verticillioides spores; experiment: Spectrophotometric assay of Fusarium spore germination; assay type: cell-based; conditions: 10^5 spores/ml in Czapek Dox medium, day 3
# Procedure: A spectrophotometric assay was used to monitor the onset of germination of Fusarium verticillioides spores (isolates: ITEM2282, MRC3235, MRC826, MRC826-2) in solution. The spores were diluted to a concentration of 10^5 spores/ml in Czapek Dox medium and mixed with 8-4000 ppm of linalool or nerolidol.
# [6] = tested on: Agrobacterium tumefaciens; experiment: Transformation of Agrobacterium with H64NORS binary vector (nerolidol formed from endogenous FPP); assay type: cell-based; conditions: inferred: no colonies obtained after transformation of 2 strains with H64NORS
# [7] = tested on: Phytophthora infestans (isolate VK98014); assay type: cell-based
# [8] = tested on: Phytophthora infestans (isolate VK98014); assay type: cell-based; conditions: linalool versus farnesol
# [9] = target: T1, H64NORS linalool/nerolidol synthase, cultivated strawberry, recombinant his-tag purified, no targeting signal, SEQ ID NO: 19; experiment: Kinetic characterisation of the his-tag purified H64NORS-encoded protein; assay type: biochemical, cultivated strawberry (Fragaria×ananassa Duch. cv. Elsanta); conditions: read-out: Km for GPP
# Procedure: The pRSETB vector harboring the H64MUT or H64NORS was used to transform E. coli strain BL21 Gold DE3 pLysE (Stratagene) as described by the manufacturer. For bacterial expression typically 1 ml of overnight liquid culture grown at 37° C. in Luria Broth (LB) medium (10 g/l tryptone, 5 g/l yeast extract, 5 g/l NaCl) supplemented with 100 mg/l ampicillin was diluted 50 times in the same medium and grown until the OD600 reached 0.4 (at 37° C.). At this stage IPTG was added to a final concentration of 1 mM in order to induce expression. After overnight growth at 16° C. the cells were harvested by centrifugation at 4000×g for 15 min. […] The cells were further processed as described by the Ni-NTA Spin Columns manufacturers (QIAGEN) for protein purification under native conditions. First elute from the column (200 μl) was further used for enzymatic activity assays.
# For determination of terpene synthase identity, the His-tag purified enzymes (prepared as described above under Example 4.6) were diluted 10-fold with buffer A containing 15 mM MOPSO (pH 7.0), 10% glycerol, 10 mM MgCl2, 1 mM sodium ascorbate and 2 mM DTT. […]
# The samples were also analysed by GC-MS using a HP 5890 series II gas chromatograph equipped with an HP5-MS column (30 m×0.25 mm i.d., 0.25 μm df) and HP 5972A Mass Selective Detector (Hewlett-Packard). […]
# [10] = substrate: CC(C)=CCC/C(C)=C/CC/C(C)=C/CO[P@@](=O)(O)OP(=O)(O)O; experiment: purified protein, by the assay type; conditions: pH 7.0
molecule,measurement,setting,value
"CC(C)=CCCC(C)=CCCC(C)=CCO [Farnesol, reference compound]",inhibition of mycelium growth,[1],partial inhibition
C=CC(C)(O)CCC=C(C)CCC=C(C)C (stereo not shown) [nerolidol],Relative effectiveness at low concentrations,[2]; nerolidol versus linalool,more effective than linalool
same,Relative effectiveness at low concentrations,"[3]; F. graminearum and MRC826, day 7",slightly more effective than linalool
same,"effect on mycelium growth, lesion formation and sporulation in infiltrated potato leaves",[4],"strongly inhibits mycelium growth, lesion formation and sporulation"
same,concentrations showing strong inhibition of germination,[5]; 8-4000 ppm tested,above 250 ppm
same,toxicity to Agrobacterium cells,[6],highly toxic
same,"Relative effectiveness, inhibition of mycelium growth",[7]; nerolidol versus linalool,slightly more effective than linalool
same,effect on mycelium growth at the lowest concentration,[1],strong inhibitor of mycelium growth
same,effect on mycelium growth through the vapour phase,[1],negligible
C=CC(C)(O)CCC=C(C)C (stereo not shown) [linalool],Relative effectiveness at very high concentrations,[2]; linalool or the combination,most effective
same,Relative effectiveness at very high concentrations,"[3]; nerolidol versus linalool, day 7",more effective
same,effect on germination of spores,[5]; 8-4000 ppm,did not affect the germination of the spores at all
same,"Relative activity, inhibition of mycelium growth",[8],more active than farnesol
same,Inhibition of mycelium growth at the lowest concentration,"[7]; 0.002% (=20 ppm) in Plich medium, day 3 and 5",active even at the lowest concentration
same,effect on mycelium growth at the lowest concentration,[1],active
same,effect on mycelium growth through the vapour phase,[1],equally effective through the vapour phase as through the medium
same,inhibition of mycelium growth,[1],inhibited completely
"CC(C)=CCC/C(C)=C/COP(=O)(O)OP(=O)(O)O [GPP, geranyl diphosphate]",Km,[9],> 50 µM
B1,Km,[10],3.2 µM

# Reference: patent US8338663B2 (priority 2001, dated 2012)
